Laboratory results from ChEMBL document CHEMBL4261593, “Synthesis and antibacterial activity of novel 3-O-arylalkylcarbamoyl-3-O-descladinosyl-9-O-(2-chlorobenzyl)oxime clarithromycin derivatives” (2018).
In brackets after ≈: the same amount, converted by molar mass.

Legend:
Assay type in all cases: functional
Streptococcus pyogenes [1] = test: Antibacterial activity against erythromycin-susceptible Streptococcus pyogenes 1 after 24 hrs by broth dilution assay; conditions: Streptococcus pyogenes, 1, 24 h
Staphylococcus aureus [2] = test: Antibacterial activity against erythromycin-susceptible Staphylococcus aureus ATCC 25923 after 24 hrs by broth dilution assay; conditions: ATCC 25923, 24 h
Escherichia coli = test: Antibacterial activity against penicillin-susceptible Escherichia coli ATCC 25922 after 24 hrs by broth dilution assay; conditions: ATCC 25922, 24 h
Pseudomonas aeruginosa = test: Antibacterial activity against penicillin-susceptible Pseudomonas aeruginosa ATCC 27853 after 24 hrs by broth dilution assay; conditions: ATCC 27853, 24 h
Bacillus subtilis = test: Antibacterial activity against penicillin-susceptible Bacillus subtilis ATCC 9372 after 24 hrs by broth dilution assay; conditions: ATCC 9372, 24 h
Staphylococcus aureus [3] = test: Antibacterial activity against […] Staphylococcus aureus ATCC 29213 after 24 hrs by broth dilution assay; conditions: ATCC 29213, 24 h
Staphylococcus aureus [4] = test: Antibacterial activity against penicillin-resistant Staphylococcus aureus ATCC 31007 after 24 hrs by broth dilution assay; conditions: ATCC 31007, 24 h
Streptococcus pyogenes [5] = test: Antibacterial activity against erythromycin-resistant Streptococcus pyogenes 2 after 24 hrs by broth dilution assay; conditions: Streptococcus pyogenes, 2, 24 h
Streptococcus pneumoniae [6] = test: Antibacterial activity against erythromycin-resistant Streptococcus pneumoniae A22072 expressing mefA gene after 24 hrs by broth dilution assay; conditions: A22072, 24 h
Streptococcus pneumoniae [7] = test: Antibacterial activity against erythromycin-resistant Streptococcus pneumoniae B1 expressing ermB gene after 24 hrs by broth dilution assay; conditions: B1, 24 h
Streptococcus pneumoniae [8] = test: Antibacterial activity against erythromycin-resistant Streptococcus pneumoniae AB11 expressing ermB and mefA genes after 24 hrs by broth dilution assay; conditions: AB11, 24 h

Row | Structure (SMILES) | MIC (Streptococcus pyogenes [1]) [µg/mL] | MIC (Staphylococcus aureus [2]) [µg/mL] | MIC (Escherichia coli) [µg/mL] | MIC (Pseudomonas aeruginosa) [µg/mL] | MIC (Bacillus subtilis) [µg/mL] | MIC (Staphylococcus aureus [3]) [µg/mL] | MIC (Staphylococcus aureus [4]) [µg/mL] | MIC (Streptococcus pyogenes [5]) [µg/mL] | MIC (Streptococcus pneumoniae [6]) [µg/mL] | MIC (Streptococcus pneumoniae [7]) [µg/mL] | MIC (Streptococcus pneumoniae [8]) [µg/mL]
1 | CC[C@H]1OC(=O)[C@H](C)[C@@H](OC(=O)NCCc2ccccc2Cl)[C@H](C)[C@@H](O[C@@H]2O[C@H](C)C[C@H](N(C)C)[C@H]2O)[C@](C)(OC)C[C@@H](C)/C(=N/OCc2ccccc2Cl)[C@H](C)[C@@H](O)[C@]1(C)O | 2 (≈ 2.2 µM) | 8 (≈ 8.78 µM) | 128 (≈ 141 µM) | 128 (≈ 141 µM) | 2 (≈ 2.2 µM) | 128 (≈ 141 µM) | 8 (≈ 8.78 µM) | 16 (≈ 17.6 µM) | 1 (≈ 1.1 µM) | 128 (≈ 141 µM) | 128 (≈ 141 µM)
2 | CC[C@H]1OC(=O)[C@H](C)[C@@H](OC(=O)NCCc2ccc(F)cc2)[C@H](C)[C@@H](O[C@@H]2O[C@H](C)C[C@H](N(C)C)[C@H]2O)[C@](C)(OC)C[C@@H](C)/C(=N/OCc2ccccc2Cl)[C@H](C)[C@@H](O)[C@]1(C)O | 2 (≈ 2.24 µM) | 4 (≈ 4.47 µM) | 128 (≈ 143 µM) | 128 (≈ 143 µM) | 2 (≈ 2.24 µM) | 128 (≈ 143 µM) | 4 (≈ 4.47 µM) | 8 (≈ 8.94 µM) | 1 (≈ 1.12 µM) | 128 (≈ 143 µM) | 128 (≈ 143 µM)
3 | C#CCNC(=O)O[C@H]1[C@H](C)[C@@H](O[C@@H]2O[C@H](C)C[C@H](N(C)C)[C@H]2O)[C@](C)(OC)C[C@@H](C)/C(=N/OCc2ccccc2Cl)[C@H](C)[C@@H](O)[C@](C)(O)[C@@H](CC)OC(=O)[C@@H]1C | 4 (≈ 4.94 µM) | – | 128 (≈ 158 µM) | 128 (≈ 158 µM) | 2 (≈ 2.47 µM) | – | – | – | – | – | –
4 | CC[C@H]1OC(=O)[C@H](C)[C@@H](OC(=O)NCC(C)C)[C@H](C)[C@@H](O[C@@H]2O[C@H](C)C[C@H](N(C)C)[C@H]2O)[C@](C)(OC)C[C@@H](C)/C(=N/OCc2ccccc2Cl)[C@H](C)[C@@H](O)[C@]1(C)O | 1 (≈ 1.21 µM) | 8 (≈ 9.66 µM) | 128 (≈ 154 µM) | 128 (≈ 154 µM) | 2 (≈ 2.41 µM) | 128 (≈ 154 µM) | 8 (≈ 9.66 µM) | 16 (≈ 19.3 µM) | 1 (≈ 1.21 µM) | 128 (≈ 154 µM) | 128 (≈ 154 µM)
5 | CC[C@H]1OC(=O)[C@H](C)[C@@H](O)[C@H](C)[C@@H](O[C@@H]2O[C@H](C)C[C@H](N(C)C)[C@H]2O)[C@](C)(OC)C[C@@H](C)/C(=N/OCc2ccccc2Cl)[C@H](C)[C@@H](O)[C@]1(C)O | 4 (≈ 5.48 µM) | 64 (≈ 87.7 µM) | 128 (≈ 175 µM) | 128 (≈ 175 µM) | 16 (≈ 21.9 µM) | 128 (≈ 175 µM) | 32 (≈ 43.9 µM) | 128 (≈ 175 µM) | 4 (≈ 5.48 µM) | 128 (≈ 175 µM) | 128 (≈ 175 µM)
6 | CC[C@H]1OC(=O)[C@H](C)[C@@H](OC(=O)NCc2ccc(F)cc2)[C@H](C)[C@@H](O[C@@H]2O[C@H](C)C[C@H](N(C)C)[C@H]2O)[C@](C)(OC)C[C@@H](C)/C(=N/OCc2ccccc2Cl)[C@H](C)[C@@H](O)[C@]1(C)O | 2 (≈ 2.27 µM) | 4 (≈ 4.54 µM) | 128 (≈ 145 µM) | 128 (≈ 145 µM) | 2 (≈ 2.27 µM) | 128 (≈ 145 µM) | 4 (≈ 4.54 µM) | 8 (≈ 9.09 µM) | 1 (≈ 1.14 µM) | 128 (≈ 145 µM) | 128 (≈ 145 µM)
7 | CC[C@H]1OC(=O)[C@H](C)[C@@H](OC(=O)NCc2ccccc2OC)[C@H](C)[C@@H](O[C@@H]2O[C@H](C)C[C@H](N(C)C)[C@H]2O)[C@](C)(OC)C[C@@H](C)/C(=N/OCc2ccccc2Cl)[C@H](C)[C@@H](O)[C@]1(C)O | 4 (≈ 4.48 µM) | 16 (≈ 17.9 µM) | 128 (≈ 143 µM) | 128 (≈ 143 µM) | 4 (≈ 4.48 µM) | 128 (≈ 143 µM) | 4 (≈ 4.48 µM) | 16 (≈ 17.9 µM) | 1 (≈ 1.12 µM) | 128 (≈ 143 µM) | 128 (≈ 143 µM)
8 | CCNC(=O)O[C@H]1[C@H](C)[C@@H](O[C@@H]2O[C@H](C)C[C@H](N(C)C)[C@H]2O)[C@](C)(OC)C[C@@H](C)/C(=N/OCc2ccccc2Cl)[C@H](C)[C@@H](O)[C@](C)(O)[C@@H](CC)OC(=O)[C@@H]1C | 2 (≈ 2.5 µM) | 16 (≈ 20 µM) | 128 (≈ 160 µM) | 128 (≈ 160 µM) | 8 (≈ 9.99 µM) | 128 (≈ 160 µM) | 16 (≈ 20 µM) | 32 (≈ 40 µM) | 1 (≈ 1.25 µM) | 128 (≈ 160 µM) | 128 (≈ 160 µM)
9 | CC[C@H]1OC(=O)[C@H](C)[C@@H](OC(=O)NCc2ccc(N)cc2)[C@H](C)[C@@H](O[C@@H]2O[C@H](C)C[C@H](N(C)C)[C@H]2O)[C@](C)(OC)C[C@@H](C)/C(=N/OCc2ccccc2Cl)[C@H](C)[C@@H](O)[C@]1(C)O | 1 (≈ 1.14 µM) | 16 (≈ 18.2 µM) | 128 (≈ 146 µM) | 128 (≈ 146 µM) | 4 (≈ 4.56 µM) | 128 (≈ 146 µM) | 16 (≈ 18.2 µM) | 16 (≈ 18.2 µM) | 0.5 (≈ 0.57 µM) | 128 (≈ 146 µM) | 128 (≈ 146 µM)
10 | CC[C@H]1OC(=O)[C@H](C)[C@@H](OC(=O)NCCc2ccc(OC)cc2)[C@H](C)[C@@H](O[C@@H]2O[C@H](C)C[C@H](N(C)C)[C@H]2O)[C@](C)(OC)C[C@@H](C)/C(=N/OCc2ccccc2Cl)[C@H](C)[C@@H](O)[C@]1(C)O | 2 (≈ 2.21 µM) | 16 (≈ 17.6 µM) | 128 (≈ 141 µM) | 128 (≈ 141 µM) | 2 (≈ 2.21 µM) | 128 (≈ 141 µM) | 4 (≈ 4.41 µM) | 8 (≈ 8.82 µM) | 1 (≈ 1.1 µM) | 128 (≈ 141 µM) | 128 (≈ 141 µM)
11 | CC[C@H]1OC(=O)[C@H](C)[C@@H](O[C@H]2C[C@@](C)(OC)[C@@H](O)[C@H](C)O2)[C@H](C)[C@@H](O[C@@H]2O[C@H](C)C[C@H](N(C)C)[C@H]2O)[C@](C)(O)C[C@@H](C)CN(C)[C@H](C)[C@@H](O)[C@]1(C)O [AZITHROMYCIN] | 0.03 (≈ 0.0401 µM) | 0.25 (≈ 0.334 µM) | 8 (≈ 10.7 µM) | 16 (≈ 21.4 µM) | 0.5 (≈ 0.668 µM) | 8 (≈ 10.7 µM) | 256 (≈ 342 µM) | 256 (≈ 342 µM) | 4 (≈ 5.34 µM) | 128 (≈ 171 µM) | 128 (≈ 171 µM)
12 | CC[C@H]1OC(=O)[C@H](C)[C@@H](OC(=O)NCc2ccccc2Cl)[C@H](C)[C@@H](O[C@@H]2O[C@H](C)C[C@H](N(C)C)[C@H]2O)[C@](C)(OC)C[C@@H](C)/C(=N/OCc2ccccc2Cl)[C@H](C)[C@@H](O)[C@]1(C)O | 4 (≈ 4.46 µM) | 8 (≈ 8.92 µM) | 128 (≈ 143 µM) | 128 (≈ 143 µM) | 2 (≈ 2.23 µM) | 128 (≈ 143 µM) | 4 (≈ 4.46 µM) | 16 (≈ 17.8 µM) | 1 (≈ 1.11 µM) | 128 (≈ 143 µM) | 128 (≈ 143 µM)
13 | CC[C@H]1OC(=O)[C@H](C)[C@@H](OC(=O)NCCc2ccc(OC)c(OC)c2)[C@H](C)[C@@H](O[C@@H]2O[C@H](C)C[C@H](N(C)C)[C@H]2O)[C@](C)(OC)C[C@@H](C)/C(=N/OCc2ccccc2Cl)[C@H](C)[C@@H](O)[C@]1(C)O | 1 (≈ 1.07 µM) | 8 (≈ 8.54 µM) | 128 (≈ 137 µM) | 128 (≈ 137 µM) | 4 (≈ 4.27 µM) | 128 (≈ 137 µM) | 8 (≈ 8.54 µM) | 16 (≈ 17.1 µM) | 1 (≈ 1.07 µM) | 128 (≈ 137 µM) | 128 (≈ 137 µM)
14 | CC[C@H]1OC(=O)[C@H](C)[C@@H](OC(=O)NCc2ccco2)[C@H](C)[C@@H](O[C@@H]2O[C@H](C)C[C@H](N(C)C)[C@H]2O)[C@](C)(OC)C[C@@H](C)/C(=N/OCc2ccccc2Cl)[C@H](C)[C@@H](O)[C@]1(C)O | 4 (≈ 4.69 µM) | 16 (≈ 18.8 µM) | 128 (≈ 150 µM) | 128 (≈ 150 µM) | 4 (≈ 4.69 µM) | 128 (≈ 150 µM) | 8 (≈ 9.38 µM) | 16 (≈ 18.8 µM) | 1 (≈ 1.17 µM) | 128 (≈ 150 µM) | 128 (≈ 150 µM)
